Experimental data reported in patent US20050070508A1, “Napthalene carboxamides and their derivatives useful as new anti-angiogenic agents” (AGOURON PHARMACEUTICALS, INC., priority 2003, published 2005).

Columns and labels:
[1] = system: human umbilical vein endothelial cells (HUVEC); assay: HUVEC+VEGF Proliferation Assay; format: cell-based; conditions: VEGF-stimulated proliferation, final VEGF 6 ng/mL, 72 hours, MTT dye reduction
Procedure: This assay determines the ability of a test compound to inhibit the growth factor-stimulated proliferation of human umbilical vein endothelial cells (“HUVEC”). HUVEC cells (passage 3-4, Clonetics, Corp.) were thawed into EGM2 culture medium (Clonetics Corp) in T75 flasks. Fresh EGM2 medium was added to the flasks 24 hours later. Four or five days later, cells were exposed to another culture medium (F12K medium supplemented with 10% fetal bovine serum (FBS), […] endothelial cell growth supplement (ECGS), and 0.1 mg/mL heparin). Exponentially-growing HUVEC cells were used in experiments thereafter. Ten to twelve thousand HUVEC cells were plated in 96-well dishes in […] of rich, culture medium (described above). The cells were allowed to attach for 24 hours in this medium. The medium was then removed by aspiration and […] of starvation media (F12K+1% FBS) was added to each well. After 24 hours, […] of test agent dissolved in 1% DMSO in starvation medium or this vehicle alone was added into each treatment well; the final DMSO concentration was 0.1%. One hour later, […] of VEGF (30 ng/mL) in starvation media was added to all wells except those containing untreated controls; the final VEGF concentration was 6 ng/mL. Cellular proliferation was quantified 72 hours later by MTT dye reduction, at which time cells were exposed for 4 hours MTT (Promega Corp.). Dye reduction was stopped by addition of a stop solution (Promega Corp.) and absorbance at 595 nm was determined on a 96-well spectrophotometer plate reader.

[2] = target: T1, human vascular endothelial growth factor receptor 2 (VEGF-R2) (Homo sapiens, UniProt P35968, DEL940-989/E990V); assay: VEGF-R2 coupled spectrophotometric assay (FLVK); format: biochemical; conditions: unphosphorylated VEGF-R2D50 (FLVK)
T1 construct: VEGF-R2D50 contains residues 806-939 and 990-1171; made in house; host or cells: baculovirus/insect cell system
Source text: This construct determines the ability of a test compound to inhibit tyrosine kinase activity. A construct (VEGF-R2D50) of the cytosolic domain of human vascular endothelial growth factor receptor 2 (VEGF-R2) lacking the 50 central residues of the 68 residues of the kinase insert domain was expressed in a baculovirus/insect cell system. Of the 1356 residues of full-length VEGF-R2, VEGF-R2D50 contains residues 806-939 and 990-1171, and also one point mutation (E990V) within the kinase insert domain relative to wild-type VEGF-R2. Autophosphorylation of the purified construct was performed by incubation of the enzyme at a concentration of […] in the presence of 3 mM ATP and 40 mM MgCl2 in 100 mM HEPES, pH 7.5, containing 5% glycerol and 5 mM DTT, at 4° C. for 2 h. […] See Parast et al., Biochemistry, 37, 16788-16801 (1998).
The production of ADP from ATP that accompanies phosphoryl transfer was coupled to oxidation of NADH using phosphoenolpyruvate (PEP) and a system having pyruvate kinase (PK) and lactic dehydrogenase (LDH). The oxidation of NADH was monitored by following the decrease of absorbance at 340 nm (e340=6.22 cm^−1 mM^−1) using a Beckman DU 650 spectrophotometer. Assay conditions for phosphorylated VEGF-R2D50 (indicated as FLVK-P in the tables below) were the following: 1 mM PEP; […]; 50 units of LDH/mL; 20 units of PK/mL; 5 mM DTT; 5.1 mM poly(E4Y1); 1 mM ATP; and 25 mM MgCl2 in 200 mM HEPES, pH 7.5. Assay conditions for unphosphorylated VEGF-R2D50 (indicated as FLVK in the tables) were the following: 1 mM PEP; […]; 50 units of LDH/mL; 20 units of PK/mL; 5 mM DTT; 20 mM poly(E4Y1); 3 mM ATP; and 60 mM MgCl2 and 2 mM MnCl2 in 200 mM HEPES, pH 7.5. Assays were initiated with 5 to 40 nM of enzyme. Ki values were determined by measuring enzyme activity in the presence of varying concentrations of test compounds. The percent inhibition at 50 nm (% inhibition @ 50 nm) was determined by linear least-squares regression analysis of absorbance as a function of time. The binding inhibitions were fitted to equation as described by Morrison. The data were analyzed using Enzyme Kinetic and Kaleidagraph software.

T1 sequence (P35968 with tags, fused parts or gaps DEL940-989/E990V limits assumed): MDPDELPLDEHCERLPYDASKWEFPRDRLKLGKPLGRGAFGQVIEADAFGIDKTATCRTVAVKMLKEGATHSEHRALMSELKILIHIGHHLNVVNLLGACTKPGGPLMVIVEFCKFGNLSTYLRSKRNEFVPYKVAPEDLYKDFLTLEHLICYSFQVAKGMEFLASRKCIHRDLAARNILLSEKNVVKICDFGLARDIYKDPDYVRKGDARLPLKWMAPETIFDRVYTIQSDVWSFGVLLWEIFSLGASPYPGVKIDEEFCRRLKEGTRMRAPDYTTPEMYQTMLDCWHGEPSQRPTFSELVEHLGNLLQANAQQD

| SMILES | Ki [2] | IC50 [1] |
| --- | --- | --- |
| CNC(=O)c1cccc2cc(Oc3ccnc4cc(OC)ccc34)ccc12 [Example 43, 6-(7-Methoxy-quinolin-4-yloxy)-naphthalene-1-carboxylic Acid Methylamide] | 1 to 10 nM | 1 to 10 nM |
| CNC(=O)c1cccc2cc(Oc3ccnc4cc(OCCN5CCCCC5)ccc34)ccc12 [Example 46, 6-[7-(2-Piperidin-1-yl-ethoxy)-quinolin-4-yloxy]-naphthalene-1-carboxylic Acid Methylamide] | 1 to 10 nM | < 1 nM |
| CCCCNC(=O)c1cccc2cc(Oc3ccnc4cc(OCCN5CCCC5)ccc34)ccc12 [Example 49, 6-[7-(2-Pyrrolidin-1-yl-ethoxy)-quinolin-4-yloxy]-naphthalene-1-carboxylic Acid Butylamide] | 1 to 10 nM | 1 to 10 nM |
| COc1ccc2c(Oc3ccc4c(C(=O)NC(C)C)cccc4c3)ccnc2c1 [Example 50, 6-(7-Methoxy-quinolin-4-yloxy)-naphthalene-1-carboxylic Acid Isopropylamide] | 1 to 10 nM | > 10 nM |
| COc1ccc2c(Oc3ccc4c(C(=O)NC5CC5)cccc4c3)ccnc2c1 [Example 51, 6-(7-Methoxy-quinolin-4-yloxy)-naphthalene-1-carboxylic acid cyclopropylamide] | < 1 nM | 1 to 10 nM |

More lines, main results first:

| Ki [2] | SMILES | IC50 [1] |
| --- | --- | --- |
| < 1 nM | O=C(Nc1ccc(N2CCC(O)CC2)nc1)c1cccc2cc(Oc3ccnc4ccsc34)ccc12 [Example 34, 6-(Thieno[3,2-b]pyridin-7-yloxy)-naphthalene-1-carboxylic acid (4-hydroxy-3,4,5,6-tetrahydro-2H-[1,2′]bipyridinyl-5′-yl)-amide] | 1 to 10 nM |
| < 1 nM | O=C(Nc1ccc(N2CCOCC2)nc1)c1cccc2cc(Oc3ccnc4ccsc34)ccc12 [Example 35, 6-(Thieno[3,2-b]pyridin-7-yloxy)-naphthalene-1-carboxylic acid (6-morpholin-4-yl-pyridin-3-yl)-amide] | 1 to 10 nM |
| 1 to 10 nM | O=C(NCCCN1CCOCC1)c1cccc2cc(Oc3ccnc4ccsc34)ccc12 [Example 39, 6-(Thieno[3,2-b]pyridin-7-yloxy)-naphthalene-1-carboxylic acid (3-morpholin-4-yl-propyl)-amide] | 1 to 10 nM |
| 1 to 10 nM | O=C(NCCCN1CCOCC1)c1cccc2cc(Oc3ncnc4ccsc34)ccc12 [Example 42, 6-(Thieno [3,2-d]pyrimidin-4-yloxy)-naphthalene-1-carboxylic acid (3-morpholin-4-yl-propyl)-amide] | > 10 nM |
| < 1 nM | CNC(=O)c1cccc2cc(Oc3ccnc4cc(OCCN5CCOCC5)ccc34)ccc12 [Example 45, 6-[7-(2-Morpholin-4-yl-ethoxy)-quinolin-4-yloxy]-naphthalene-1-carboxylic Acid Methylamide] | < 1 nM |
